In ChEMBL document CHEMBL1130353, “Conformational studies of paclitaxel analogs modified at the C-2' position in hydrophobic and hydrophilic solvent systems” (J Med Chem, 1997):

Key:
Format in all cases: functional, cell-based
OV-1063 = experiment: Inhibitory activity of compound against human ovarian carcinoma (OV-1063) Cell proliferation
J774 = experiment: Inhibitory activity of compound against murine macrophage-like (J774.2) cell proliferation; details: Mus musculus
EMT6 = experiment: Inhibitory activity of compound against murine mammary adenocarcinoma (EMT-6) cell proliferation; details: Mus musculus

Compound | IC50 (OV-1063) | IC50 (J774) | IC50 (EMT6)
CC(=O)O[C@H]1C(=O)[C@@]2(C)C([C@H](OC(=O)c3ccccc3)[C@]3(O)C[C@H](OC(=O)C[C@@H](NC(=O)c4ccccc4)c4ccccc4)C(C)=C1C3(C)C)[C@]1(OC(C)=O)COC1C[C@@H]2O (some centres undefined) | 0.45 µM | 0.4 µM | 0.3 µM
CO[C@@H](C(=O)O[C@H]1C[C@@]2(O)[C@@H](OC(=O)c3ccccc3)C3[C@]4(OC(C)=O)COC4C[C@H](O)[C@@]3(C)C(=O)[C@H](OC(C)=O)C(=C1C)C2(C)C)[C@@H](NC(=O)c1ccccc1)c1ccccc1 (some centres undefined) | 0.27 µM | 0.47 µM | 0.27 µM
CC(=O)O[C@H]1C(=O)[C@@]2(C)[C@H]([C@H](OC(=O)c3ccccc3)[C@]3(O)C[C@H](OC(=O)[C@H](O)[C@@H](NC(=O)c4ccccc4)c4ccccc4)C(C)=C1C3(C)C)[C@]1(OC(C)=O)CO[C@@H]1C[C@@H]2O [PACLITAXEL] | 0.015 µM | 0.015 µM | 0.009 µM
